Data taken from PubChem BioAssay (NCI).
“And” between values parts separate entries of the source, which are not always exact repeats. Identical values can stand only once.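 The compound was tested at five concentrations on cells cultured in 96-well plates, with a 48-hour exposure period. GI50 is the concentration that inhibits growth by half. At the TGI there is no net growth.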 *1 amine or outer side, *2 acyl side, *3 side chain or, on linkers, in order; H or OH if unused. Where a SMILES comes first, the peptide text is derived from it. Bridges are numbered along the chain shown (N, C = ends). Roman numbers before positions name the chains, in order. [ ]: non-standard residue; d: D form. Actinocin(9to1) = Cc1c2oc3c(C)ccc(C(=O)[*:1])c3nc-2c(C(=O)[*:2])c(N)c1=O; NMeH = CN[CH](Cc1c[nH]cn1)C(=O)O; NMeV = CN[CH](C(=O)O)C(C)C; Sar = CNCC(=O)O

Legend:
Experiment in all cases: NCI anticancer screen, dose series, 48 h
[1] = system: A498 renal
[2] = system: CAKI-1 renal
[3] = system: EKVX NSCLC
[4] = system: HOP-62 NSCLC
[5] = system: IGROV1 ovarian
[6] = system: M14 melanoma
[7] = system: MALME-3M melanoma
[8] = system: OVCAR-4 ovarian
[9] = system: UACC-257 melanoma
[10] = system: UACC-62 melanoma

SMILES	TGI [1] [µM]	TGI [2] [µM]	TGI [3] [µM]	TGI [4] [µM]	TGI [5] [µM]	TGI [6]	TGI [7]	TGI [8]	TGI [9]	TGI [10] [µM]	GI50 [1] [µM]	GI50 [3] [µM]	GI50 [6]	GI50 [9]	GI50 [2] [µM]	GI50 [5] [µM]	GI50 [7] [µM]	GI50 [10] [µM]	GI50 [8] [µM]
CC(=O)O[C@H]1CC[C@@]2(C)C(=CC[C@@H]3[C@@H]2CC[C@]2(C)C(=N/O)/C(=C\c4ccccc4)C[C@@H]32)C1	33	> 100	51.2	71.6	> 100	39.3 µM	24.7 µM	> 100 µM	37.3 µM	31.9									
ClC(Cl)(Cl)C1CCOC1n1nnc2ccccc21 (configuration not stated)	> 100	> 100	> 100	> 100	> 100	> 100 µM	> 100 µM		> 100 µM	> 100									
COc1ccc(C2C3=C(N=C4SC(C(C)=O)=C(C)N42)c2ccccc2CC3)cc1 (configuration not stated)	> 100			> 100	> 100	> 100 µM		> 100 µM	> 100 µM	> 100									
CC(C)(C)OC(=O)N/C(C=O)=C\C1CCCCC1		46.9	35.4	58.9	46	30.4 µM	70.4 µM	97.8 µM	48 µM	30.7									
CC(C)(C)OC(=O)NC12C3C4C1C1C2C3C41NC(=O)OC(C)(C)C (configuration not stated)	> 100	> 100	> 100	> 100	> 100	> 100 µM		> 100 µM	> 100 µM	> 100									
CCc1cccc2c3c([nH]c12)-c1ccccc1NC(=O)C3	> 100	> 100	> 100	> 100	> 100	> 100 µM			> 100 µM	> 100									
O=c1[nH]c(=O)n(C2CC(O)C(CO)O2)cc1Oc1ccccc1 (configuration not stated)		> 100	> 100	> 100	> 100	> 100 µM	> 100 µM	> 100 µM	> 100 µM	> 100									
Cc1cn(C2CCC(CO)(CF)O2)c(=O)[nH]c1=O (configuration not stated)	> 100	> 100	> 100	> 100	> 100	> 100 µM		> 100 µM	> 100 µM	> 100									
Cc1c(CNc2ccc(C(=O)NC(CCCNC(=O)c3ccccc3C(=O)O)C(=O)O)cc2)cnc2nc(N)nc(N)c12 (configuration not stated)	> 100		> 100						> 100 µM		> 100	0.0834	0.0385 µM	> 100 µM					
C(/C=N/NC1=NCCCCN1)=N\NC1=NCCCCN1		> 100	> 100	> 100	> 100	> 100 µM	> 100 µM	> 100 µM	> 100 µM	> 100									
Cc1cc(C)c2c(c1)CC1(Cc3cc(C)c(C)cc3C1=O)C2=O (configuration not stated)	> 100	> 100	> 100		> 100	> 100 µM	> 100 µM	> 100 µM	> 100 µM	> 100									
CC1=NN(c2cccc(Cl)c2)C2(C1=Cc1ccc(O)cc1)C(Cl)C(=O)N2c1nc2ccccc2s1 (configuration not stated)	42.5	85.6	> 100	51.8	65.9	58.7 µM		> 100 µM	> 100 µM										
N#Cc1nc2cc(Cl)ccc2nc1N1CCN(c2ccc([N+](=O)[O-])cc2)CC1	> 100	> 100	> 100	> 100		> 100 µM		> 100 µM	> 100 µM	> 100									
O=C(CCN1CCOCC1)/C(=C/c1ccccc1)c1ccccc1	23.3	16.9	23.9	45.8	22.8		8.74 µM	23.8 µM	9.72 µM	7.52									
CC[C@@]1(O)C(=O)OCc2c1cc1n(c2=O)Cc2c-1nc1ccc(O)cc1c2[Si](C)(C)C(C)(C)C		< 0.0137	15.8	1.49	7.41	< 0.0114 µM	0.179 µM	0.174 µM	0.681 µM	0.164									
CC1CC/C(=C\c2ccc(F)cc2)C2=C1C(c1ccc(F)cc1)N1C(=O)CSC1=N2 (configuration not stated)	> 100	> 100	> 100		> 100	> 100 µM	> 100 µM		> 100 µM	> 100									
Fc1cccc(F)c1C1SCc2nc3cc(Cl)c(Cl)cc3n21 (configuration not stated)		> 100	> 100	> 100	> 100	> 100 µM	> 100 µM	> 100 µM	> 100 µM	> 100									
FC(F)(F)c1cc(N(C2c3ccccc3C=Cc3ccccc32)P(Cl)Cl)cc(C(F)(F)F)c1	56.8	59	38.6	37.3	92.3	58 µM	36 µM	42.9 µM	39.9 µM										
C#CC[C@@]12CC(=O)C[C@@H]1CCC1(C2)OCCO1 (tested in a mixture with another compound)	> 100		> 100	> 100	> 100		> 100 µM	> 100 µM	> 100 µM	> 100									
COC(=O)[C@H](Cc1c[nH]c2ccccc12)NP(=O)(OCCC#N)OCC1OC(n2cc(C)c(=O)[nH]c2=O)CC1N=[N+]=[N-] (some centres not stated)		> 100	> 100	> 100	> 100	> 100 µM	> 100 µM	> 100 µM	> 100 µM	> 100									
CN(Cc1cnc2nc(N)nc(N)c2n1)c1ccc(C(=O)NC23CC4CC(CC(C4)C2)C3)cc1	> 100	27.8	32.5	28.2	21.8	18.4 µM	26.3 µM		25.6 µM	19.3									

SMILES	TGI [1] [µM]	TGI [2] [µM]	TGI [3] [µM]	TGI [4] [µM]	TGI [5] [µM]	TGI [6]	TGI [7]	TGI [8]	TGI [9]	TGI [10] [µM]	GI50 [1] [µM]	GI50 [3] [µM]	GI50 [6]	GI50 [9]	GI50 [2] [µM]	GI50 [5] [µM]	GI50 [7] [µM]	GI50 [10] [µM]	GI50 [8] [µM]
O=c1c2cc(C(F)(F)F)ccc2sc2c(NCCCNCCO)nc3ccccc3c12	3.06	2.81			2.62		3.09 µM			3.25	1.61				1.48	1.23	1.59	1.78	
COC(C/C(=C/CO[Si](C(C)C)(C(C)C)C(C)C)C(=O)N(COCC[Si](C)(C)C)c1ccccc1I)OC	> 100	> 100		> 100	27.4	> 100 µM		> 100 µM	69.9 µM	50.7									
O=C(c1ccccc1)c1ccc2nc(-c3c(Cl)c(Cl)c(Cl)c(Cl)c3-c3nnc(-c4ccccc4)o3)[nH]c2c1	78.4	> 100	> 100	> 100	> 100	> 100 µM	> 100 µM	> 100 µM	> 100 µM										
O=C(COc1ccc(OCC(=O)N2C(=O)CC(=O)N(c3ccc(Cl)cc3)C2=S)cc1)N1C(=O)CC(=O)N(c2ccc(Cl)cc2)C1=S	> 100		> 100		> 100	> 100 µM	93.5 µM	> 100 µM	> 100 µM	60.5									
CCOC(=O)c1ccc(Nc2nc3ccccc3nc2-c2cccs2)cc1		> 100	> 100	> 100	> 100		> 100 µM		> 100 µM	33.6									
O=C(NNC(=S)Nc1ccccc1)c1nsc2ccccc12			> 100	> 100	> 100	32.9 µM		> 100 µM	> 100 µM	85.7									
N#C/C(=C/C=C/c1ccco1)C(N)=O		> 10	> 10	> 10	> 10	> 10 µM	> 10 µM												
Cc1c2oc3c(C)ccc(C(=O)NC4C(=O)NC(Cc5ccccc5)C(=O)N5CCCC5C(=O)N(C)CC(=O)N(C)C(C(C)C)C(=O)OC4C)c3nc-2c(C(=O)NC2C(=O)NC(Cc3ccccc3)C(=O)N3CCCC3C(=O)N(C)CC(=O)N(C)C(C(C)C)C(=O)OC2C)c(N)c1=O (configuration not stated) (I: TFP[Sar][NMeV] / II: TFP[Sar][NMeV]; ester I:1-I:C, II:1-II:C; linker I:N-II:N via Actinocin(9to1); configuration not given here)	0.0244	0.21		0.102	0.0165	0.0399 µM and 0.0936 µM	0.0187 µM	0.383 µM and 0.467 µM	0.0577 µM	0.00232			< 0.001 µM						
C#C[C@]1(O)CC[C@H]2[C@@H]3CCC4=C/C(=N/NC(=O)c5cccc6c(=O)c7ccccc7[nH]c56)CCC4[C@H]3CC[C@@]21C (some centres not stated)		> 100	> 100	> 100	> 100	> 100 µM	68.1 µM	> 100 µM	> 100 µM	> 100									
Cc1nc2cc(F)c(F)cc2[nH]c1=O		> 100	> 100	> 100		> 100 µM	> 100 µM	> 100 µM	> 100 µM	> 100									
NCCCN(CCCCN(CCCN)C(=O)OCc1ccccc1)C(=O)OCc1ccccc1	> 100	> 100	> 100	> 100	> 100	> 100 µM		> 100 µM	> 100 µM	> 100									
C/C=C(\C)C(=O)OC1CC(OC(C)=O)C2(C(=O)OC)COC3C2C1(C)C1C2(C(=O)OC)OCC1(C3O)C1(O)C3CC(C4(O)C=COC4O3)C1(C)O2 (configuration not stated)	> 100	> 100	> 100	> 100	> 100	> 100 µM		> 100 µM	> 100 µM	> 100									
O=C1c2cc(Cc3ccccc3)c(=O)c(Cc3ccccc3)cc2C(=O)c2cc(Cc3ccccc3)c(=O)c(Cc3ccccc3)cc21	> 100	> 100	> 100	> 100	> 100	> 100 µM	> 100 µM	> 100 µM	> 100 µM										
Cc1cc(-n2nnc(C(=O)O)c2-c2ccccc2)c2ccc(Cl)cc2n1	> 100	> 100	> 100		> 100	> 100 µM	> 100 µM	> 100 µM	> 100 µM	> 100									
CC(C)(C)C1CCC2c3c([nH]c4ccccc34)C3C(=O)N(c4ccc(C#N)cc4)C(=O)C3C2C1 (configuration not stated)	35.5	61	41.2	31.2	> 100	72.6 µM	37.5 µM		82.9 µM										
CC1C(NNC(N)=O)Oc2cc3c(cc2C1c1ccccc1O)OCO3 (configuration not stated)	68.9	> 100	> 100	> 100	86.4	> 100 µM	97.2 µM		> 100 µM	> 100									
O=P1(N2CCOCC2)OCCO1	> 100	> 100	> 100		> 100	> 100 µM	> 100 µM	> 100 µM	> 100 µM	> 100									
N#CC(CCN1CCC(Nc2ccccc2)(c2nnnn2C2CCCCC2)CC1)(c1ccccc1)c1ccccc1	> 100		> 100	> 100	> 100	> 100 µM	> 100 µM	> 100 µM	> 100 µM	> 100									
Cc1c2oc3c(C)ccc(C(=O)NC4C(=O)NC(C(C)C)C(=O)N5CCCC5C(=O)N(C)CC(=O)N(C)C(Cc5cnc[nH]5)C(=O)OC4C)c3nc-2c(C(=O)NC2C(=O)NC(C(C)C)C(=O)N3CCCC3C(=O)N(C)CC(=O)N(C)C(Cc3cnc[nH]3)C(=O)OC2C)c(N)c1=O (configuration not stated) (I: TVP[Sar][NMeH] / II: TVP[Sar][NMeH]; ester I:1-I:C, II:1-II:C; linker I:N-II:N via Actinocin(9to1); configuration not given here)		> 100	> 100	> 100	> 100	> 100 µM	> 100 µM	> 100 µM	> 100 µM	> 100									
CC(C)(C)c1ccc(C(O)CCCN2CCC(C(O)(c3ccccc3)c3ccccc3)CC2)cc1 (configuration not stated)			2.77			3.21 µM and 18.4 µM	3.03 µM and 23.7 µM	2.75 µM	2.85 µM and 18.2 µM			1.37	1.7 µM and 13.5 µM	1.4 µM and 13.2 µM					1.44
